Source: US12522576B2, “Polymorphs of D9-THC naphthoylester” (priority 2019, dated 2026)
≈ marks a conversion by molar mass, not a printed value.

Experiment: D9 solubility in the liquors at isolation temperature
Assay type: physicochemical
Conditions: organic solvent or mixture, thermodynamic from solid
Experimental: At the end of each experiment, suspensions were equilibrated at the isolation temperature (25 or 5° C.) for at least 18 hours and the solids and liquors separated by centrifugation at the isolation temperature. The Exo/D9/D8 ratio (Exo-D9-THC-naphthoylester impurity/D9-THC-naphthoylester/D8-THC-naphthoylester) was determined in both the isolated solids and the liquors, from which the % Exo-depletion in the isolated solids was calculated. Several solids were also isolated at elevated temperatures to assess the impact of the isolation temperature on Exo-impurity depletion.
In addition, the solubility of D9 in the liquors was determined in most of the explored solvents and used to estimate the yield.

Question: Which solubility (Anisole/MeOH (1:9), 5 °C, batch 5, Anisole/MeOH (1:9), seed G, heat T 40, isolation T 5, SP 10, 30.0 mL/g) does the source give for `CCCCCc1cc(OC(=O)c2ccc3ccccc3c2)c2c(c1)OC(C)(C)[C@@H]1CCC(C)=C[C@@H]21` [Form B, (6aR,10aR)-6a,7,8,10a-tetrahydro-6,6,9-trimethyl-3-pentyl-6H-dibenzo[b,d]pyran-1-yl ester] here?
Answer: 9800 µg/mL (≈ 20.9 mM)

Question: What about the solubility (Cyclohexanone/EtOH (1:9), 25 °C, batch 5, Cyclohexanone/EtOH (1:9), seed G/H, heat T 55, isolation T 25, SP 16, 5.0 mL/g) of the same compound?
Answer: 21100 µg/mL (≈ 45 mM)

Question: What about the solubility (Cyclohexanone/MeOH (1:9), 25 °C, batch 5, Cyclohexanone/MeOH (1:9), seed G/H, heat T 60, isolation T 25, SP 12, 10.0 mL/g) of the same compound?
Answer: 7600 µg/mL (≈ 16.2 mM)

Question: And the solubility (DMF/MeOH (1:9), 25 °C, batch 5, DMF/MeOH (1:9), seed D, heat T 50, isolation T 25, SP 2, 8.9 mL/g)?
Answer: 5200 µg/mL (≈ 11.1 mM)

Question: And the solubility (DMF/MeOH (1:9), 25 °C, batch 5, DMF/MeOH (1:9), seed G, heat T 50, isolation T 25, SP 3, 9.4 mL/g)?
Answer: 4700 µg/mL (≈ 10 mM)

Question: What about the solubility (DMF/MeOH (1:9), 25 °C, batch 5, DMF/MeOH (1:9), seed G, heat T 60, isolation T 25, SP 9, 10.0 mL/g) of the same compound?
Answer: 5100 µg/mL (≈ 10.9 mM)

Question: And the solubility (DMSO/MeOH (1:9), 25 °C, batch 5, DMSO/MeOH (1:9), seed D, heat T 50, isolation T 25, SP 2, 8.2 mL/g)?
Answer: 4100 µg/mL (≈ 8.75 mM)

Question: And the solubility (DMSO/MeOH (1:9), 25 °C, batch 5, DMSO/MeOH (1:9), seed D/G, heat T 60, isolation T 25, SP 9, 10.0 mL/g)?
Answer: 4200 µg/mL (≈ 8.96 mM)

Question: And the solubility (DMSO/MeOH (1:9), 25 °C, batch 5, DMSO/MeOH (1:9), seed G, heat T 50, isolation T 25, SP 4, 9.4 mL/g)?
Answer: 3700 µg/mL (≈ 7.9 mM)

Question: And the solubility (DMSO/MeOH (3:7), 25 °C, batch 5, DMSO/MeOH (3:7), seed D, heat T 50, isolation T 25, SP 2, 7.1 mL/g)?
Answer: 7500 µg/mL (≈ 16 mM)

Question: What about the solubility (DMSO/MeOH (3:7), 25 °C, batch 5, DMSO/MeOH (3:7), seed G, heat T 50, isolation T 25, SP 4, 5.2 mL/g) of the same compound?
Answer: 7000 µg/mL (≈ 14.9 mM)

Question: What about the solubility (DMSO/acetone/MeOH (1.5:1.5:7), 25 °C, batch 5, DMSO/acetone/MeOH (1.5:1.5:7), seed D, heat T 50, isolation T 25, SP 2, 5.0 mL/g) of the same compound?
Answer: 9100 µg/mL (≈ 19.4 mM)

Question: What about the solubility (DMSO/acetone/MeOH (1.5:1.5:7), 25 °C, batch 5, DMSO/acetone/MeOH (1.5:1.5:7), seed G, heat T 50, isolation T 25, SP 4, 5.1 mL/g) of the same compound?
Answer: 7200 µg/mL (≈ 15.4 mM)

Question: What about the solubility (EtOAc/EtOH (1:9), 25 °C, batch 5, EtOAc/EtOH (1:9), seed H, heat T 55, isolation T 25, SP 21, 10.0 mL/g) of the same compound?
Answer: 12000 µg/mL (≈ 25.6 mM)

Question: And the solubility (EtOAc/MeOH (1:3), 5 °C, batch 5, EtOAc/MeOH (1:3), seed G, heat T 25, isolation T 5, SP 11, 30.0 mL/g)?
Answer: 11200 µg/mL (≈ 23.9 mM)

Question: What about the solubility (IPA, 25 °C, batch 5, IPA, seed G/H, heat T 50, isolation T 25, SP 14, 10.0 mL/g) of the same compound?
Answer: 7300 µg/mL (≈ 15.6 mM)

Question: And the solubility (IPA/water (95:5), 25 °C, batch 5, IPA/water (95:5), seed G/H, heat T 60, isolation T 25, SP 12, 10.0 mL/g)?
Answer: 4500 µg/mL (≈ 9.6 mM)

Question: What about the solubility (MEK/IPA (1:9), 25 °C, batch 5, MEK/IPA (1:9), seed G/H, heat T 55, isolation T 25, SP 15, 5.0 mL/g) of the same compound?
Answer: 17200 µg/mL (≈ 36.7 mM)

Question: And the solubility (MEK/MeOH (1:9), 25 °C, batch 5, MEK/MeOH (1:9), seed G/H, heat T 60, isolation T 25, SP 12, 10.0 mL/g)?
Answer: 4500 µg/mL (≈ 9.6 mM)

Question: And the solubility (MEK/MeOH (3:7), 5 °C, batch 5, MEK/MeOH (3:7), seed G, heat T 25, isolation T 5, SP 11, 30.0 mL/g)?
Answer: 15800 µg/mL (≈ 33.7 mM)

Question: What about the solubility (MEK/MeOH (3:7), 25 °C, batch 5, MEK/MeOH (3:7), seed G, heat T 25, isolation T 25, SP 7, 30.0 mL/g) of the same compound?
Answer: 16800 µg/mL (≈ 35.8 mM)

Question: What about the solubility (MeOH, 25 °C, batch 5, MeOH, seed E/G, heat T 50, isolation T 25, SP 3, 9.8 mL/g) of the same compound?
Answer: 5000 µg/mL (≈ 10.7 mM)

Question: What about the solubility (Toluene/EtOH (5:95), 25 °C, batch 5, Toluene/EtOH (5:95), seed H, heat T 55, isolation T 25, SP 21, 12.0 mL/g) of the same compound?
Answer: 10300 µg/mL (≈ 22 mM)

Question: And the solubility (Toluene/MeOH (1:9), 5 °C, batch 5, Toluene/MeOH (1:9), seed G, heat T 40, isolation T 5, SP 10, 30.0 mL/g)?
Answer: 8700 µg/mL (≈ 18.6 mM)

Question: What about the solubility (crystallisation liquors over suspended solid, 5 °C, batch 5, p-Xylene/MeOH (1:9), seed G, heat T 25, isolation T 5, SP 11, 40.0 mL/g) of the same compound?
Answer: 9200 µg/mL (≈ 19.6 mM)

Question: And the solubility (crystallisation liquors over suspended solid, 25 °C, batch 2, IPA/water (95:5), seed G/H, heat T 55, isolation T 25, SP 13, 10.0 mL/g)?
Answer: 5600 µg/mL (≈ 11.9 mM)

Question: And the solubility (crystallisation liquors over suspended solid, 25 °C, batch 2, IPA/water (99:1), seed G/H, heat T 55, isolation T 25, SP 13, 10.0 mL/g)?
Answer: 7300 µg/mL (≈ 15.6 mM)

Question: And the solubility (crystallisation liquors over suspended solid, 25 °C, batch 5, Anisole/MeOH (1:9), seed G, heat T 40, isolation T 25, SP 8, 30.0 mL/g)?
Answer: 9600 µg/mL (≈ 20.5 mM)

Question: What about the solubility (crystallisation liquors over suspended solid, 25 °C, batch 5, Cyclohexanone/IPA (1:9), seed G/H, heat T 45, isolation T 25, SP 15, 2.5 mL/g) of the same compound?
Answer: 59200 µg/mL (≈ 126 mM)

Question: And the solubility (crystallisation liquors over suspended solid, 25 °C, batch 5, EtOAc/IPA (1:9), seed G/H, heat T 55, isolation T 25, SP 15, 7.4 mL/g)?
Answer: 15100 µg/mL (≈ 32.2 mM)

Question: And the solubility (crystallisation liquors over suspended solid, 25 °C, batch 5, EtOAc/MeOH (1:3), seed G, heat T 40, isolation T 25, SP 8, 30.0 mL/g)?
Answer: 11300 µg/mL (≈ 24.1 mM)

Question: And the solubility (crystallisation liquors over suspended solid, 25 °C, batch 5, EtOH, seed E/G, heat T 50, isolation T 25, SP 3, 9.6 mL/g)?
Answer: 6900 µg/mL (≈ 14.7 mM)

Question: What about the solubility (crystallisation liquors over suspended solid, 25 °C, batch 5, MEK/EtOH (1:9), seed G/H, heat T 55, isolation T 25, SP 15, 10.0 mL/g) of the same compound?
Answer: 11200 µg/mL (≈ 23.9 mM)

Question: What about the solubility (crystallisation liquors over suspended solid, 25 °C, batch 5, Toluene/MeOH (1:9), seed G, heat T 40, isolation T 25, SP 8, 30.0 mL/g) of the same compound?
Answer: 8400 µg/mL (≈ 17.9 mM)

Question: What about the solubility (crystallisation liquors over suspended solid, 25 °C, batch 5, Toluene/MeOH (3:7), seed G, heat T 40, isolation T 25, SP 3, 5.5 mL/g) of the same compound?
Answer: 53500 µg/mL (≈ 114 mM)

Question: And the solubility (crystallisation liquors over suspended solid, 25 °C, batch 5, n-BuOH, seed E/G, heat T 50, isolation T 25, SP 3, 9.8 mL/g)?
Answer: 14800 µg/mL (≈ 31.6 mM)

Question: What about the solubility (crystallisation liquors over suspended solid, 25 °C, batch 5, n-BuOH, seed G, heat T 40, isolation T 25, SP 8, 10.0 mL/g) of the same compound?
Answer: 16700 µg/mL (≈ 35.6 mM)

Question: What about the solubility (liquors of the equilibrated crystallisation suspension, 25 °C, batch 2, IPA/water (95:5), seed G/H, heat T 55, isolation T 25, 10.0 mL/g, SP 13, Exp 43) of the same compound?
Answer: 5600 µg/mL (≈ 11.9 mM)

Question: What about the solubility (liquors of the equilibrated crystallisation suspension, 25 °C, batch 2, IPA/water (99:1), seed G/H, heat T 55, isolation T 25, 10.0 mL/g, SP 13, Exp 45) of the same compound?
Answer: 7300 µg/mL (≈ 15.6 mM)

Question: What about the solubility (liquors of the equilibrated crystallisation suspension, 25 °C, batch 5, Cyclohexanone/EtOH (1:9), seed G/H, heat T 55, isolation T 25, 5.0 mL/g, SP 16, Exp 32) of the same compound?
Answer: 21100 µg/mL (≈ 45 mM)

Question: What about the solubility (liquors of the equilibrated crystallisation suspension, 25 °C, batch 5, Cyclohexanone/IPA (1:9), seed G/H, heat T 45, isolation T 25, 2.5 mL/g, SP 15, Exp 39) of the same compound?
Answer: 59200 µg/mL (≈ 126 mM)

Question: What about the solubility (liquors of the equilibrated crystallisation suspension, 25 °C, batch 5, Cyclohexanone/MeOH (1:9), seed G/H, heat T 60, isolation T 25, 10.0 mL/g, SP 12, Exp 30) of the same compound?
Answer: 7600 µg/mL (≈ 16.2 mM)

Question: And the solubility (liquors of the equilibrated crystallisation suspension, 25 °C, batch 5, EtOAc/EtOH (1:9), seed H, heat T 55, isolation T 25, 10.0 mL/g, SP 21, Exp 28)?
Answer: 12000 µg/mL (≈ 25.6 mM)

Question: What about the solubility (liquors of the equilibrated crystallisation suspension, 25 °C, batch 5, EtOAc/IPA (1:9), seed G/H, heat T 55, isolation T 25, 7.4 mL/g, SP 15, Exp 35) of the same compound?
Answer: 15100 µg/mL (≈ 32.2 mM)

Question: What about the solubility (liquors of the equilibrated crystallisation suspension, 25 °C, batch 5, IPA/water (95:5), seed G/H, heat T 60, isolation T 25, 10.0 mL/g, SP 12, Exp 29) of the same compound?
Answer: 4500 µg/mL (≈ 9.6 mM)

Question: And the solubility (liquors of the equilibrated crystallisation suspension, 25 °C, batch 5, IPA, seed G/H, heat T 50, isolation T 25, 10.0 mL/g, SP 14, Exp 31)?
Answer: 7300 µg/mL (≈ 15.6 mM)

Question: And the solubility (liquors of the equilibrated crystallisation suspension, 25 °C, batch 5, MEK/EtOH (1:9), seed G/H, heat T 55, isolation T 25, 10.0 mL/g, SP 15, Exp 40)?
Answer: 11200 µg/mL (≈ 23.9 mM)

Question: And the solubility (liquors of the equilibrated crystallisation suspension, 25 °C, batch 5, MEK/IPA (1:9), seed G/H, heat T 55, isolation T 25, 5.0 mL/g, SP 15, Exp 25)?
Answer: 17200 µg/mL (≈ 36.7 mM)

Question: And the solubility (liquors of the equilibrated crystallisation suspension, 25 °C, batch 5, MEK/MeOH (1:9), seed G/H, heat T 60, isolation T 25, 10.0 mL/g, SP 12, Exp 27)?
Answer: 4500 µg/mL (≈ 9.6 mM)

Question: What about the solubility (liquors of the equilibrated crystallisation suspension, 25 °C, batch 5, Toluene/EtOH (5:95), seed H, heat T 55, isolation T 25, 12.0 mL/g, SP 21, Exp 33) of the same compound?
Answer: 10300 µg/mL (≈ 22 mM)

Question: And the solubility (n-BuOH/MeOH (1:3), 25 °C, batch 5, n-BuOH/MeOH (1:3), seed E/G, heat T 50, isolation T 25, SP 3, 9.4 mL/g)?
Answer: 5600 µg/mL (≈ 11.9 mM)

Question: And the solubility (n-BuOH/MeOH (1:3), 25 °C, batch 5, n-BuOH/MeOH (1:3), seed G, heat T 60, isolation T 25, SP 9, 10.0 mL/g)?
Answer: 6000 µg/mL (≈ 12.8 mM)

Question: And the solubility (p-Xylene/MeOH (1:9), 25 °C, batch 5, p-Xylene/MeOH (1:9), seed G, heat T 25, isolation T 25, SP 7, 40.0 mL/g)?
Answer: 9800 µg/mL (≈ 20.9 mM)
